From patent US20170065564A1, “BIS-CYCLIC GUANIDINE COMPOUND COMPOSITIONS, METHODS OF USE AND TREATMENT THEREOF” (University of South Florida, priority 2014, published 2017)
In brackets after ≈: the same amount, converted by molar mass.

Key:
Acinetobacter baumannii [1] = test: MIC micro broth dilution assay; format: cell-based; design: key to stacked score activity, 100/MIC, A: stacked score = 100/MIC
Procedure, shortened: (§1)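 Strains were multidrug-resistant clinical isolates grown in LB (Gram-negative) or TSB (Gram-positive), diluted 1:1,000 before compound addition.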

Pseudomonas aeruginosa [2] = test: MIC micro broth dilution assay; format: cell-based
Protocol: For this study we used a representative panel of multi-drug resistant clinical ESKAPE pathogen isolates (Supplemental Table S6).^42 43 3a, 44 45 Gram-positive organisms were grown in tryptic soy broth media (TSB), whilst Gram-negative organisms were grown in lysogeny Broth (LB), as described by us previously. ^43 MIC and MBC determination assays.
Broth cultures of ESKAPE strains were grown overnight before being diluted 1 in 1,000 in fresh media. Sterile 96-well plates were loaded with culture and compounds (in DMF) were added at decreasing concentrations to equal a total volume of 200 μl per well. Care was taken to not add more than 2.0% DMF to any well. Plates were then incubated at 37° C., and MICs determined after 24 hours by visual inspection for a lack of turbidity in wells. All assays were performed in triplicate with identical results obtained. For both the scaffold ranking and positional scanning samples, relative broad-spectrum activity was determined via stacked scores: […]

Enterococcus faecium [3] = test: MIC micro broth dilution assay; format: cell-based; design: key to stacked score activity, 100/MIC, E: stacked score = 100/MIC
Procedure, shortened: as §1

ESKAPE pathogens = test: MIC micro broth dilution assay, statements and stacked scores over all ESKAPE pathogens; format: cell-based
Procedure, shortened: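 Overnight cultures of multidrug-resistant clinical isolates, diluted 1 in 1,000 (Gram-positives in TSB, Gram-negatives in LB), were exposed to decreasing compound concentrations in DMF (≤2.0%) at 37° C. MIC was read visually as no turbidity after 24 hours, in triplicate. Broad-spectrum activity was ranked by stacked scores.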

Acinetobacter baumannii [4] = test: Minimal bactericidal concentration (MBC) assay; format: cell-based; conditions: purified compound; read-out: MBC90
Protocol: (§2) Briefly, compound was washed by centrifugation and serial dilution, before plating on Tryptic Soy Agar (TSA). Plates were incubated for 24 hours at 37° C. and cell viability assessed by determining CFU/ml at each concentration, for every compound. Percent recovery was then determined compared to CFU/ml from no drug controls. All concentrations and controls were tested using three biological replicates, alongside two technical replicates for each data point.

Enterobacter cloacae = test: Minimal bactericidal concentration (MBC) assay; format: cell-based; conditions: purified compound; read-out: MBC90
Protocol: as §2

Enterococcus faecium [5] = test: Minimal bactericidal concentration (MBC) assay; format: cell-based; conditions: purified compound; read-out: MBC90
Protocol: as §2

Klebsiella pneumoniae = test: Minimal bactericidal concentration (MBC) assay; format: cell-based; conditions: purified compound; read-out: MBC90
Protocol: as §2

Pseudomonas aeruginosa [6] = test: Minimal bactericidal concentration (MBC) assay; format: cell-based; conditions: purified compound; read-out: MBC90
Protocol: as §2

Staphylococcus aureus = test: Minimal bactericidal concentration (MBC) assay; format: cell-based; conditions: purified compound; read-out: MBC90
Protocol: as §2

S. aureus = test: Resistance serial passage assay; format: cell-based, Staphylococcus aureus; conditions: 8 passages, concentration doubled each day
Procedure, shortened: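 Cultures were diluted 1:100 and exposed to compound starting at half MIC, incubated 24 h at 37 °C. Each day, cells were passaged 1:100 into fresh media with compound at 2-fold higher concentration, for eight days in total. Run in triplicate.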

[7] = system: Staphylococcus aureus (USA300 strain FPR3757); test: Murine model of lethal peritonitis; format: in vivo, mice; conditions: 2× MIC, I.M., 1 h post-infection, six mice per group
Procedure, shortened: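 Mice (six per group) received 1×10^8 CFU ml^−1 S. aureus USA300 FPR3757 in PBS with 5% mucin intraperitoneally; compounds were given I.M., vancomycin control I.V., 1 h post-infection. Survival was monitored twice daily for five days with a pre-moribund endpoint, and groups were compared by log rank test.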

## CCCCCCCN1C(=N)N(CCCC[C@H]2CNC(=N)N2CCC23CC4CC(CC(C4)C2)C3)C[C@@H]1CCCC [Compound 19]
Acinetobacter baumannii [1]; A. baumannii
  stacked score activity, 100/MIC, A: 25
Acinetobacter baumannii [1]; A. baumannii isolate 1403
  MIC: 2.0 µM (≈ 1.08 µg/mL)
Acinetobacter baumannii [1]; A. baumannii isolate 1643
  MIC: 2.0 µM (≈ 1.08 µg/mL)
Acinetobacter baumannii [1]; A. baumannii isolate 1644
  MIC: 2.0 µM (≈ 1.08 µg/mL)
Acinetobacter baumannii [1]; A. baumannii isolate 1647
  MIC: 2.0 µM (≈ 1.08 µg/mL)
Acinetobacter baumannii [1]; A. baumannii isolate 1648
  MIC: 2.0 µM (≈ 1.08 µg/mL)
Acinetobacter baumannii [1]; A. baumannii isolate 1649
  MIC: 2.0 µM (≈ 1.08 µg/mL)
Acinetobacter baumannii [1]; A. baumannii isolate 1650
  MIC: 2.0 µM (≈ 1.08 µg/mL)
Acinetobacter baumannii [1]; A. baumannii isolate 1651
  MIC: 2.0 µM (≈ 1.08 µg/mL)
Acinetobacter baumannii [1]; A. baumannii isolate 1653
  MIC: 2.0 µM (≈ 1.08 µg/mL)
Acinetobacter baumannii [1]; A. baumannii isolate 1654
  MIC: 2.0 µM (≈ 1.08 µg/mL)
Acinetobacter baumannii [1]; purified compound, Table 1
  MIC: 1.66 µM (≈ 0.898 µg/mL)
Pseudomonas aeruginosa [2]; P. aeruginosa isolate 1414
  MIC: 5.0 µM (≈ 2.7 µg/mL)
Pseudomonas aeruginosa [2]; P. aeruginosa isolate 1415
  MIC: 5.0 µM (≈ 2.7 µg/mL)
Pseudomonas aeruginosa [2]; P. aeruginosa isolate 1416
  MIC: 3.0 µM (≈ 1.62 µg/mL)
Pseudomonas aeruginosa [2]; P. aeruginosa isolate 1417
  MIC: 3.0 µM (≈ 1.62 µg/mL)
Pseudomonas aeruginosa [2]; P. aeruginosa isolate 1418
  MIC: 7.0 µM (≈ 3.79 µg/mL)
Pseudomonas aeruginosa [2]; P. aeruginosa isolate 1419
  MIC: 3.0 µM (≈ 1.62 µg/mL)
Pseudomonas aeruginosa [2]; P. aeruginosa isolate 1420
  MIC: 5.0 µM (≈ 2.7 µg/mL)
Pseudomonas aeruginosa [2]; P. aeruginosa isolate 1421
  MIC: 5.0 µM (≈ 2.7 µg/mL)
Pseudomonas aeruginosa [2]; P. aeruginosa isolate 1422
  MIC: 5.0 µM (≈ 2.7 µg/mL)
Pseudomonas aeruginosa [2]; P. aeruginosa isolate 1423
  MIC: 2.0 µM (≈ 1.08 µg/mL)
Pseudomonas aeruginosa [2]; panel of P. aeruginosa clinical isolates
  concentration inhibiting 90% of isolates: 10 µM
Pseudomonas aeruginosa [2]; purified compound, Table 1
  MIC: 1.66 µM (≈ 0.898 µg/mL)
Enterococcus faecium [3]; E. faecium
  stacked score activity, 100/MIC, E: 33
Enterococcus faecium [3]; E. faecium isolate 1406
  MIC: 2.0 µM (≈ 1.08 µg/mL)
Enterococcus faecium [3]; E. faecium isolate 1407
  MIC: 2.0 µM (≈ 1.08 µg/mL)
Enterococcus faecium [3]; E. faecium isolate 1432
  MIC: 2.0 µM (≈ 1.08 µg/mL)
Enterococcus faecium [3]; E. faecium isolate 1438
  MIC: 2.0 µM (≈ 1.08 µg/mL)
Enterococcus faecium [3]; E. faecium isolate 1439
  MIC: 2.0 µM (≈ 1.08 µg/mL)
Enterococcus faecium [3]; E. faecium isolate 1443
  MIC: 2.0 µM (≈ 1.08 µg/mL)
Enterococcus faecium [3]; E. faecium isolate 1444
  MIC: 2.0 µM (≈ 1.08 µg/mL)
Enterococcus faecium [3]; E. faecium isolate 1449
  MIC: 2.0 µM (≈ 1.08 µg/mL)
Enterococcus faecium [3]; E. faecium isolate 1450
  MIC: 2.0 µM (≈ 1.08 µg/mL)
Enterococcus faecium [3]; E. faecium isolate 1451
  MIC: 2.0 µM (≈ 1.08 µg/mL)
Enterococcus faecium [3]; purified compound, Table 1
  MIC: 1.66 µM (≈ 0.898 µg/mL)
ESKAPE pathogens; dose 4 ug/ml, letters E,S,K,A,P,E = ESKAPE pathogens, — = none
  pathogens against which the compound showed activity at 4 ug/ml: ESAP
ESKAPE pathogens; dose 5 ug/ml, letters E,S,K,A,P,E = ESKAPE pathogens, — = none
  pathogens against which the compound showed activity at 5 ug/ml: ESKAPE
ESKAPE pathogens; dose 10 ug/ml, letters E,S,K,A,P,E = ESKAPE pathogens, — = none
  pathogens against which the compound showed activity at 10 ug/ml: ESKAPE
ESKAPE pathogens; dose 25 ug/ml, letters E,S,K,A,P,E = ESKAPE pathogens, — = none
  pathogens against which the compound showed activity at 25 ug/ml: ESKAPE
ESKAPE pathogens; stacked score over all ESKAPE pathogens (details in Table S4b)
  stacked score Total: 156
ESKAPE pathogens; sum over all six ESKAPE pathogens
  Total stacked score: 156
Acinetobacter baumannii [4]
  MBC: 4.66 µM (≈ 2.52 µg/mL)
Enterobacter cloacae
  MBC: 2.70 µM (≈ 1.46 µg/mL)
Enterococcus faecium [5]
  MBC: 3.59 µM (≈ 1.94 µg/mL)
Klebsiella pneumoniae
  MBC: 2.61 µM (≈ 1.41 µg/mL)
Pseudomonas aeruginosa [6]
  MBC: 2.77 µM (≈ 1.5 µg/mL)
Staphylococcus aureus
  MBC: 2.88 µM (≈ 1.56 µg/mL)
S. aureus
  increase in MIC after serial passage: 16 fold
[7]
  survival of infected mice over 5 day infection period: only a single mouse succumbing to infection after the first day
